Patent US6358885B1, “Substituted phenylheterocyclic herbicides” (Mississippi State University, priority 1992, dated 2002)

Tests used:
[1] = tested on: lambsquarters; assay: Test B preemergence/postemergence greenhouse plant response rating 0 to 10; format: in vivo, Chenopodium album; conditions: 0 to 10 scale
Summary of the method: (§1)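 Test chemicals, dissolved in a non-phytotoxic solvent, were applied to soil at planting and, at the same time, over foliage of seedlings at the one to four leaf stage.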

[2] = tested on: rice; assay: as above; format: in vivo, Oryza sativa; conditions: 0 to 10 scale
Summary of the method: as §1

[3] = tested on: soybean; assay: as above; format: in vivo, Glycine max; conditions: 0 to 10 scale
Summary of the method: as §1

[4] = tested on: wheat; assay: as above; format: in vivo, Triticum aestivum; conditions: 0 to 10 scale
Summary of the method: as §1

[5] = tested on: wild buckwheat; assay: as above; format: in vivo, Polygonum convolvulus; conditions: 0 to 10 scale
Summary of the method: as §1

[6] = tested on: wild oat; assay: as above; format: in vivo, Avena fatua; conditions: 0 to 10 scale
Summary of the method: as §1

[7] = tested on: blackgrass; assay: Test C preemergence/postemergence greenhouse plant response rating 0 to 100; format: in vivo, Alopecurus myosuroides; conditions: for Plant response rating, Blackgrass: 0 to 100 scale
Summary of the method: (§2)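 Compounds in non-phytotoxic solvent applied preemergence to sandy loam one day after planting, postemergence at the 1–4 leaf stage, or to ~2.5 cm floodwater over silt loam.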

[8] = tested on: downy brome; assay: as above; format: in vivo, Bromus tectorum; conditions: for Plant response rating Downy Brome: 0 to 100 scale
Summary of the method: as §2

[9] = tested on: sorghum; assay: as above; format: in vivo, Sorghum bicolor; conditions: for Plant response rating, Sorghum: 0 to 100 scale
Summary of the method: as §2

[10] = tested on: sugar beet; assay: as above; format: in vivo, Beta vulgaris; conditions: for Plant response rating, Sugar beet: 0 to 100 scale
Summary of the method: as §2

[11] = tested on: wild buckwheat; assay: as above; format: in vivo, Polygonum convolvulus; conditions: for Plant response rating, Wild buckwheat: 0 to 100 scale
Summary of the method: as §2

[12] = tested on: barnyardgrass; assay: Test C flood test plant response rating 0 to 100; format: in vivo, Echinochloa crus-galli
Summary of the method: as §2

C#CC(C)N1C(=O)COc2cc(F)c(-c3nn4c(c3Cl)CCCC4)cc21 (centres unmarked) [Compound 50]
Plant response rating, Lambsquarter ([1]; POSTEMERGENCE, Rate 10 g/ha): 9
Plant response rating, Lambsquarter ([1]; POSTEMERGENCE, Rate 50 g/ha): 10
Plant response rating, Lambsquarter ([1]; PREEMERGENCE, Rate 50 g/ha): 10
Plant response rating, Rice ([2]; POSTEMERGENCE, Rate 10 g/ha): 6
Plant response rating, Rice ([2]; POSTEMERGENCE, Rate 50 g/ha): 4
Plant response rating, Rice ([2]; PREEMERGENCE, Rate 50 g/ha): 2
Plant response rating, Soybean ([3]; POSTEMERGENCE, Rate 10 g/ha): 6
Plant response rating, Soybean ([3]; POSTEMERGENCE, Rate 50 g/ha): 9
Plant response rating, Soybean ([3]; PREEMERGENCE, Rate 50 g/ha): 3
Plant response rating, Wheat ([4]; POSTEMERGENCE, Rate 10 g/ha): 4
Plant response rating, Wheat ([4]; POSTEMERGENCE, Rate 50 g/ha): 4
Plant response rating, Wheat ([4]; PREEMERGENCE, Rate 50 g/ha): 0
Plant response rating, Wild buckwheat ([5]; POSTEMERGENCE, Rate 10 g/ha): 10
Plant response rating, Wild buckwheat ([5]; POSTEMERGENCE, Rate 50 g/ha): 10
Plant response rating, Wild buckwheat ([5]; PREEMERGENCE, Rate 50 g/ha): 7
Plant response rating, Wild oat ([6]; POSTEMERGENCE, Rate 10 g/ha): 3
Plant response rating, Wild oat ([6]; POSTEMERGENCE, Rate 50 g/ha): 4
Plant response rating, Wild oat ([6]; PREEMERGENCE, Rate 50 g/ha): 3
Plant response rating, Blackgrass ([7]; POSTEMERGENCE, 62 g/ha): 60
Plant response rating, Blackgrass ([7]; POSTEMERGENCE, 250 g/ha): 60
Plant response rating (0 to 100), Blackgrass ([7]; POSTEMERGENCE, Rate 1 g/ha): 20
Plant response rating (0 to 100), Blackgrass ([7]; POSTEMERGENCE, Rate 4 g/ha): 30
Plant response rating (0 to 100), Blackgrass ([7]; Rate 16 g/ha, POSTEMERGENCE): 50
Plant response rating Downy Brome ([8]; POSTEMERGENCE, 62 g/ha): 50
Plant response rating Downy Brome ([8]; POSTEMERGENCE, 250 g/ha): 60
Plant response rating (0 to 100), Downy Brome ([8]; POSTEMERGENCE, Rate 1 g/ha): 0
Plant response rating (0 to 100), Downy Brome ([8]; POSTEMERGENCE, Rate 4 g/ha): 30
Plant response rating (0 to 100), Downy Brome ([8]; Rate 16 g/ha, POSTEMERGENCE): 40
Plant response rating, Sorghum ([9]; POSTEMERGENCE, 62 g/ha): 50
Plant response rating, Sorghum ([9]; POSTEMERGENCE, 250 g/ha): 50
Plant response rating (0 to 100), Sorghum ([9]; POSTEMERGENCE, Rate 1 g/ha): 30
Plant response rating (0 to 100), Sorghum ([9]; POSTEMERGENCE, Rate 4 g/ha): 50
Plant response rating (0 to 100), Sorghum ([9]; Rate 16 g/ha, POSTEMERGENCE): 50
Plant response rating, Sugar beet ([10]; POSTEMERGENCE, 62 g/ha): 100
Plant response rating, Sugar beet ([10]; POSTEMERGENCE, 250 g/ha): 100
Plant response rating (0 to 100), Sugar beet ([10]; POSTEMERGENCE, Rate 1 g/ha): 20
Plant response rating (0 to 100), Sugar beet ([10]; POSTEMERGENCE, Rate 4 g/ha): 100
Plant response rating (0 to 100), Sugar beet ([10]; Rate 16 g/ha, POSTEMERGENCE): 100
Plant response rating, Wild buckwheat ([11]; POSTEMERGENCE, 62 g/ha): 100
Plant response rating, Wild buckwheat ([11]; POSTEMERGENCE, 250 g/ha): 100
Plant response rating (0 to 100), Wild buckwheat ([11]; POSTEMERGENCE, Rate 1 g/ha): 0
Plant response rating (0 to 100), Wild buckwheat ([11]; POSTEMERGENCE, Rate 4 g/ha): 20
Plant response rating (0 to 100), Wild buckwheat ([11]; Rate 16 g/ha, POSTEMERGENCE): 80
Plant response rating (0 to 100), Barnyardgrass ([12]; POSTEMERGENCE section, flood test, Rate 4 g/ha): 60
Plant response rating (0 to 100), Barnyardgrass ([12]; Rate 16 g/ha, under POSTEMERGENCE head (flood test species)): 70
Plant response rating, Barnyardgrass ([12]; flood test species listed under POSTEMERGENCE, 62 g/ha, 0 to 100 scale): 95
Plant response rating, Barnyardgrass ([12]; flood test species listed under POSTEMERGENCE, 250 g/ha, 0 to 100 scale): 100

Fc1cc(Cl)ccc1-c1nn2c(c1Br)CCCC2 [Compound 52]
Plant response rating, Lambsquarter ([1]; POSTEMERGENCE, Rate 50 g/ha): 9
Plant response rating, Lambsquarter ([1]; PREEMERGENCE, Rate 50 g/ha): 10
Plant response rating, Lambsquarter ([1]; Rate 200 g/ha, POSTEMERGENCE): 10
Plant response rating, Lambsquarter ([1]; Rate 200 g/ha, PREEMERGENCE): 10
Plant response rating, Rice ([2]; POSTEMERGENCE, Rate 50 g/ha): 4
Plant response rating, Rice ([2]; PREEMERGENCE, Rate 50 g/ha): 0
Plant response rating, Rice ([2]; Rate 200 g/ha, POSTEMERGENCE): 6
Plant response rating, Rice ([2]; Rate 200 g/ha, PREEMERGENCE): 1
Plant response rating, Soybean ([3]; POSTEMERGENCE, Rate 50 g/ha): 10
Plant response rating, Soybean ([3]; PREEMERGENCE, Rate 50 g/ha): 0
Plant response rating, Soybean ([3]; Rate 200 g/ha, POSTEMERGENCE): 8
Plant response rating, Soybean ([3]; Rate 200 g/ha, PREEMERGENCE): 0
Plant response rating, Wheat ([4]; POSTEMERGENCE, Rate 50 g/ha): 4
Plant response rating, Wheat ([4]; PREEMERGENCE, Rate 50 g/ha): 4
Plant response rating, Wheat ([4]; Rate 200 g/ha, POSTEMERGENCE): 8
Plant response rating, Wheat ([4]; Rate 200 g/ha, PREEMERGENCE): 7
Plant response rating, Wild buckwheat ([5]; POSTEMERGENCE, Rate 50 g/ha): 10
Plant response rating, Wild buckwheat ([5]; PREEMERGENCE, Rate 50 g/ha): 7
Plant response rating, Wild buckwheat ([5]; Rate 200 g/ha, POSTEMERGENCE): 10
Plant response rating, Wild buckwheat ([5]; Rate 200 g/ha, PREEMERGENCE): 10
Plant response rating, Wild oat ([6]; POSTEMERGENCE, Rate 50 g/ha): 5
Plant response rating, Wild oat ([6]; PREEMERGENCE, Rate 50 g/ha): 4
Plant response rating, Wild oat ([6]; Rate 200 g/ha, POSTEMERGENCE): 8
Plant response rating, Blackgrass ([7]; POSTEMERGENCE, 125 g/ha): 60
Plant response rating (0 to 100), Blackgrass ([7]; POSTEMERGENCE, Rate 2 g/ha): 10
Plant response rating, Blackgrass ([7]; PREEMERGENCE, 125 g/ha): 50
Plant response rating (0 to 100), Blackgrass ([7]; PREEMERGENCE, Rate 2 g/ha): 0
Plant response rating (0 to 100), Blackgrass ([7]; Rate 8 g/ha, POSTEMERGENCE): 20
Plant response rating (0 to 100), Blackgrass ([7]; Rate 8 g/ha, PREEMERGENCE): 0
Plant response rating (0 to 100), Blackgrass ([7]; Rate 31 g/ha, POSTEMERGENCE): 40
Plant response rating (0 to 100), Blackgrass ([7]; Rate 31 g/ha, PREEMERGENCE): 0
Plant response rating Downy Brome ([8]; POSTEMERGENCE, 125 g/ha): 90
Plant response rating (0 to 100), Downy Brome ([8]; POSTEMERGENCE, Rate 2 g/ha): 10
Plant response rating Downy Brome ([8]; PREEMERGENCE, 125 g/ha): 50
Plant response rating (0 to 100), Downy Brome ([8]; PREEMERGENCE, Rate 2 g/ha): 0
Plant response rating (0 to 100), Downy Brome ([8]; Rate 8 g/ha, POSTEMERGENCE): 20
Plant response rating (0 to 100), Downy Brome ([8]; Rate 8 g/ha, PREEMERGENCE): 0
Plant response rating (0 to 100), Downy Brome ([8]; Rate 31 g/ha, POSTEMERGENCE): 50
Plant response rating (0 to 100), Downy Brome ([8]; Rate 31 g/ha, PREEMERGENCE): 0
Plant response rating, Sorghum ([9]; POSTEMERGENCE, 125 g/ha): 60
Plant response rating (0 to 100), Sorghum ([9]; POSTEMERGENCE, Rate 2 g/ha): 30
Plant response rating, Sorghum ([9]; PREEMERGENCE, 125 g/ha): 10
Plant response rating (0 to 100), Sorghum ([9]; PREEMERGENCE, Rate 2 g/ha): 0
Plant response rating (0 to 100), Sorghum ([9]; Rate 8 g/ha, POSTEMERGENCE): 40
Plant response rating (0 to 100), Sorghum ([9]; Rate 8 g/ha, PREEMERGENCE): 0
Plant response rating (0 to 100), Sorghum ([9]; Rate 31 g/ha, POSTEMERGENCE): 50
Plant response rating (0 to 100), Sorghum ([9]; Rate 31 g/ha, PREEMERGENCE): 0
Plant response rating, Sugar beet ([10]; POSTEMERGENCE, 125 g/ha): 100
Plant response rating (0 to 100), Sugar beet ([10]; POSTEMERGENCE, Rate 2 g/ha): 70
Plant response rating, Sugar beet ([10]; PREEMERGENCE, 125 g/ha): 100
Plant response rating (0 to 100), Sugar beet ([10]; PREEMERGENCE, Rate 2 g/ha): 0
Plant response rating (0 to 100), Sugar beet ([10]; Rate 8 g/ha, POSTEMERGENCE): 70
Plant response rating (0 to 100), Sugar beet ([10]; Rate 8 g/ha, PREEMERGENCE): 0
Plant response rating (0 to 100), Sugar beet ([10]; Rate 31 g/ha, POSTEMERGENCE): 100
Plant response rating (0 to 100), Sugar beet ([10]; Rate 31 g/ha, PREEMERGENCE): 70
Plant response rating, Wild buckwheat ([11]; POSTEMERGENCE, 125 g/ha): 100
Plant response rating, Wild buckwheat ([11]; PREEMERGENCE, 125 g/ha): 100
Plant response rating (0 to 100), Wild buckwheat ([11]; PREEMERGENCE, Rate 2 g/ha): 0
Plant response rating (0 to 100), Wild buckwheat ([11]; Rate 8 g/ha, POSTEMERGENCE): 40
Plant response rating (0 to 100), Wild buckwheat ([11]; Rate 8 g/ha, PREEMERGENCE): 0
Plant response rating (0 to 100), Wild buckwheat ([11]; Rate 31 g/ha, POSTEMERGENCE): 80
Plant response rating (0 to 100), Wild buckwheat ([11]; Rate 31 g/ha, PREEMERGENCE): 10
Plant response rating (0 to 100), Barnyardgrass 2 ([12]; POSTEMERGENCE section, flood test, Rate 2 g/ha): 25
Plant response rating (0 to 100), Barnyardgrass 2 ([12]; Rate 8 g/ha, under POSTEMERGENCE head (flood test species)): 95
Plant response rating (0 to 100), Barnyardgrass 2 ([12]; Rate 31 g/ha, under POSTEMERGENCE head (flood test species)): 100
Plant response rating Barnyardgrass 2 ([12]; flood test species listed under POSTEMERGENCE, 125 g/ha, 0 to 100 scale): 100
